# Measured values from ChEMBL document CHEMBL5226292, “Nonpungent N-AVAM Capsaicin Analogues and Cancer Therapy” (J Med Chem, 2021).
# Experiments:
# MCF7 = experiment: Antiproliferative activity in human MCF7 cells assessed as cell growth inhibition by MTT assay; assay type: functional, cell-based
# T47D = experiment: Antiproliferative activity in human T47D cells assessed as cell growth inhibition by MTT assay; assay type: functional, cell-based
# EFM-19 = experiment: Antiproliferative activity in human EFM-19 cells assessed as cell growth inhibition by MTT assay; assay type: functional, cell-based
# [1] = Induction of apoptosis in human PBMC cells; assay type: functional
# DMS-114 = experiment: Antiproliferative activity in human DMS-114 cells assessed as cell growth inhibition by MTT assay; assay type: functional, cell-based
# TSU = experiment: Antiproliferative activity in human TSU cells assessed as cell growth inhibition; assay type: functional, cell-based
# PPC-1 = experiment: Antiproliferative activity in human PPC-1 cells assessed as cell growth inhibition; assay type: functional, cell-based
# P388 = experiment: Antiproliferative activity in mouse P388 cells assessed as cell growth inhibition by MTT assay; assay type: functional, cell-based
# J774 = experiment: Antiproliferative activity in mouse J774 cells assessed as cell growth inhibition; assay type: functional, cell-based
# [2] = Antiproliferative activity in mouse WEHI-3 cells assessed as cell growth inhibition; assay type: functional, cell-based
# [3] = Antiproliferative activity in human Cervical carcinoma cell assessed as cell growth inhibition; assay type: functional, cell-based
# [4] = Cytotoxicity against human Bone marrow cell assessed as cell growth inhibition; assay type: toxicity, cell-based; conditions: bone marrow cells
# Ca-Ski = experiment: Antiproliferative activity in human Ca-Ski cells assessed as cell growth inhibition; assay type: functional, cell-based
# C6 = experiment: Antiproliferative activity against rat C6 cells assessed as inhibition of cell growth at 10 uM relative to control; assay type: functional; set-up: scale not given: the % may be the effect or the level left
# [5] = AUC in sc dosed mouse; assay type: ADME, organism-based; set-up: route sc; conditions: in vivo
# [6] = AUC in po dosed mouse; assay type: ADME, organism-based; set-up: route po; conditions: in vivo
# [7] = Drug concentration in Sprague-Dawley rat hepatocytes measured after 30 mins relative to control; assay type: ADME, cell-based, Hepatocyte; conditions: 0.5 h
# [8] = Drug concentration in rat enterocytes measured after 30 to 60 mins relative to control
smiles,measurement,setting,value
CCCCC/C=C\C/C=C\C/C=C\C/C=C\CCCC(=O)NCc1ccc(O)c(OC)c1,IC50,MCF7,400 nM
same,IC50,T47D,350 nM
same,IC50,EFM-19,550 nM
same,Activity,[1],60%
same,IC50,DMS-114,15000 nM
same,IC50,TSU,100 nM
same,IC50,PPC-1,1000 nM
CCCCCCCCCCCCCCCC(=O)NCc1ccc(O)c(OC)c1,IC50,MCF7,2200 nM
same,IC50,T47D,1600 nM
same,IC50,EFM-19,1000 nM
CC/C=C\C/C=C\C/C=C\CCCCCCCC(=O)NCc1ccc(O)c(OC)c1,IC50,DMS-114,15000 nM
CCCCC/C=C\C/C=C\CCCCCCCC(=O)NCc1ccc(O)c(OC)c1,IC50,DMS-114,43000 nM
CCCCCC[C@H](O)C/C=C\CCCCCCCC(=O)NCc1ccc(O)c(OC)c1,IC50,P388,9 µg/mL
same,IC50,J774,8 µg/mL
same,IC50,[2],3 µg/mL
same,IC50,[3],149 µg/mL
same,IC50,[4],40 µg/mL
CCCCCC[C@@H](C/C=C\CCCCCCCC(=O)NCc1ccc(O)c(OC)c1)OC(=O)Cc1ccccc1,IC50,P388,49 µg/mL
same,IC50,J774,10 µg/mL
same,IC50,[2],31 µg/mL
same,IC50,[3],74 µg/mL
same,IC50,Ca-Ski,122 µg/mL
same,IC50,[4],73 µg/mL
COc1cc(CNC(=O)CCCC/C=C/C(C)C)ccc1O [CAPSAICIN],IC50,MCF7,100000 nM
same,IC50,T47D,100000 nM
same,Activity,C6,20%
CCCCCCCC/C=C\CCCCCCCC(=O)NCc1ccc(O)c(OC)c1 [OLVANIL],AUC,[5],8 µg·h/g
same,AUC,[6],0.1 µg·h/g
same,IC50,MCF7,1000 nM
same,IC50,T47D,750 nM
same,IC50,EFM-19,700 nM
same,Activity,[1],20.5%
same,IC50,DMS-114,> 50000 nM
same,Activity,C6,95%
same,Drug uptake,[7],4%
same,Drug uptake,[8],1%
